Consider three compounds from the kinase profiling compilation of Christmann-Franck et al. (2016).

CAMKK1 (human), sequence (Q8N5S9 whole entry, looked up): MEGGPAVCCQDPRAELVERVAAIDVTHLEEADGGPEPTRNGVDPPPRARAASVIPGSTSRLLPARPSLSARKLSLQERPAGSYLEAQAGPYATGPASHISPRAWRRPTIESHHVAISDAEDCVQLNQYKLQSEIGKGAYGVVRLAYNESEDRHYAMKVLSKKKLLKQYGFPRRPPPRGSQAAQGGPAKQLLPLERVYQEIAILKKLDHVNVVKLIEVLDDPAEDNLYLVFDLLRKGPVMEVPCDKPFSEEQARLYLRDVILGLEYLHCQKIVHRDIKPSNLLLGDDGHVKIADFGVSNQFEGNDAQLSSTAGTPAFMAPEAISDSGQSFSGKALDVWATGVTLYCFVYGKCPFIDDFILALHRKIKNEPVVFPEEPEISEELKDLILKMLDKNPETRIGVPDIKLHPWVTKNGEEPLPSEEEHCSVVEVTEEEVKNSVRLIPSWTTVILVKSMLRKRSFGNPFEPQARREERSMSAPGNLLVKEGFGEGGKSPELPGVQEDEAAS
MAP3K3 (human), sequence (Q99759 whole entry, looked up): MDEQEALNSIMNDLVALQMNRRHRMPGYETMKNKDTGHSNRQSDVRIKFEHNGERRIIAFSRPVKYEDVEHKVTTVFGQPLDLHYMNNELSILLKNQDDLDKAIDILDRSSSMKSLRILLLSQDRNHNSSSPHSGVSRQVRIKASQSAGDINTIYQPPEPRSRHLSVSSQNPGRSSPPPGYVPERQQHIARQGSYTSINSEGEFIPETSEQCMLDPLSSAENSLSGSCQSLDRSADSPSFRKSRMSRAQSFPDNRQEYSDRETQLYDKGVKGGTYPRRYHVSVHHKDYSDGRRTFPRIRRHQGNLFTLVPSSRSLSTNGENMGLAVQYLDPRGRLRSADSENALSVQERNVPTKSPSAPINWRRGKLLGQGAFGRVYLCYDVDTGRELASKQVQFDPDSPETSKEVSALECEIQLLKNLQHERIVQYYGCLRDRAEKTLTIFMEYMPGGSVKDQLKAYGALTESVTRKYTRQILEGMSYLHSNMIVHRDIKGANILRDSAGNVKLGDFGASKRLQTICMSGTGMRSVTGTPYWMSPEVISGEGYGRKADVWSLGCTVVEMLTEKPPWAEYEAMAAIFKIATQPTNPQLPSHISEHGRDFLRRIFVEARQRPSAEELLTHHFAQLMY
NTRK2 (human), sequence (Q16620 whole entry, looked up): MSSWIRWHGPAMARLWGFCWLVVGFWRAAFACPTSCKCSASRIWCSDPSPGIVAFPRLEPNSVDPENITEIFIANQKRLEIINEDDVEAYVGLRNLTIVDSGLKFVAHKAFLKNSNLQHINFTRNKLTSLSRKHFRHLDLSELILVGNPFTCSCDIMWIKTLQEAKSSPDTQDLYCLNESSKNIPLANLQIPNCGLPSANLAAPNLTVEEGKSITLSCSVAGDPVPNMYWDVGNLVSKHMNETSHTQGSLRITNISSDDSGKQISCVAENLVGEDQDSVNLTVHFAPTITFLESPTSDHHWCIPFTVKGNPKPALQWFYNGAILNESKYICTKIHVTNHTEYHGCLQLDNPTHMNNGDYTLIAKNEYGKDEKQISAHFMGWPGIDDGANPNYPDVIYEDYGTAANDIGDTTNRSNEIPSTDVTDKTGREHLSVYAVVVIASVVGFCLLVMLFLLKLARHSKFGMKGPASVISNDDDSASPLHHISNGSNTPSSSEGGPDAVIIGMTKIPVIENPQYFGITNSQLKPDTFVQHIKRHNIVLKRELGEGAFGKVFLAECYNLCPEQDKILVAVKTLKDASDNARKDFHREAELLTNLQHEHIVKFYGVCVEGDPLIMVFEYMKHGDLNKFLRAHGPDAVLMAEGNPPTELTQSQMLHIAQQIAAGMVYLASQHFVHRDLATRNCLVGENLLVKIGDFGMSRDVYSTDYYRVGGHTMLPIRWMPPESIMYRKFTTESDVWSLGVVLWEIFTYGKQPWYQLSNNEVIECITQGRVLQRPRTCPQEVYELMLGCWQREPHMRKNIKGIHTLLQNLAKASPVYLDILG
CSNK1G3 (human), sequence (Q9Y6M4 whole entry, looked up): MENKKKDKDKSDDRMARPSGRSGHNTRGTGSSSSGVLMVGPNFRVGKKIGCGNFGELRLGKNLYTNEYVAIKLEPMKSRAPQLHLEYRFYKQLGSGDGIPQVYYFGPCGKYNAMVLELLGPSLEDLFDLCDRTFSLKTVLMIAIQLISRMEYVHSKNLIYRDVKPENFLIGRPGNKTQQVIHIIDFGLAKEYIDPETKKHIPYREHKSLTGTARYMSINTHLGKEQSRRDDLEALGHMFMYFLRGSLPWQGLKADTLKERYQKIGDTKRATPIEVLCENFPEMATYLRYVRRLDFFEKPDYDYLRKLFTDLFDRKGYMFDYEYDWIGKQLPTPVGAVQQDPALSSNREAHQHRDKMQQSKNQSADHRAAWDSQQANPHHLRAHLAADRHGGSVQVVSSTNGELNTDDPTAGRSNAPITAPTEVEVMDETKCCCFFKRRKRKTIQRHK

The first assay addresses CSNK1G3 (human) (UniProt Q9Y6M4). Kind of assay: radiometric filter-binding kinase assay, Kinase HotSpot. To be noted: compound 0.5 µM; ATP 10 µM.
As for `Cn1cnc2cc3c(Nc4cccc(Br)c4)ncnc3cc21`, the residual activity was determined as 88.1%.

As to `O=C1Nc2ccccc2/C1=C1\Nc2ccccc2\C1=N/O`, the residual activity turned out to be 81.9%.

On to `O=C(Nc1cccc(Nc2cc(Nc3cccc(C(F)(F)F)c3)ncn2)c1)C1CC1`, for which the residual activity worked out at 107%.

In another assay the target is CDK1 CCNA2 (human) (UniProt P06493+P20248). The assay is described as above. To be noted: compound 0.5 µM; ATP 10 µM.
In the case of `Cn1cnc2cc3c(Nc4cccc(Br)c4)ncnc3cc21`, the residual activity worked out at 95.8%.

On to `O=C1Nc2ccccc2/C1=C1\Nc2ccccc2\C1=N/O`, for which the residual activity was found to be 88.4%.

For `O=C(Nc1cccc(Nc2cc(Nc3cccc(C(F)(F)F)c3)ncn2)c1)C1CC1`, the residual activity came out at 97.9%.

Another assay addresses MAP3K3 (human) (UniProt Q99759). The assay is described as above. The note with it: compound 0.5 µM; ATP 10 µM.
Take `Cn1cnc2cc3c(Nc4cccc(Br)c4)ncnc3cc21`: the residual activity amounted to 109%.

As to `O=C1Nc2ccccc2/C1=C1\Nc2ccccc2\C1=N/O`, the residual activity worked out at 94.4%.

As to `O=C(Nc1cccc(Nc2cc(Nc3cccc(C(F)(F)F)c3)ncn2)c1)C1CC1`, the residual activity came to 95.2%.

The target of a further assay is MAPK12 (human) (UniProt P53778). The description is as above. The note with it: compound 0.5 µM; ATP 10 µM.
For `Cn1cnc2cc3c(Nc4cccc(Br)c4)ncnc3cc21`, the residual activity amounted to 92%.

In the case of `O=C1Nc2ccccc2/C1=C1\Nc2ccccc2\C1=N/O`, the residual activity is 99.5%.

For the compound `O=C(Nc1cccc(Nc2cc(Nc3cccc(C(F)(F)F)c3)ncn2)c1)C1CC1`, the residual activity came to 89.2%.

The next assay deals with SRC (human) (UniProt P12931). The description is as above. To be noted: compound 0.5 µM; ATP 10 µM.
As to `Cn1cnc2cc3c(Nc4cccc(Br)c4)ncnc3cc21`, the residual activity is 81.2%.

Consider `O=C1Nc2ccccc2/C1=C1\Nc2ccccc2\C1=N/O`, for which the residual activity was 65.1%.

Take `O=C(Nc1cccc(Nc2cc(Nc3cccc(C(F)(F)F)c3)ncn2)c1)C1CC1`: the residual activity is 102%.

The next assay deals with CDK3 CCNE1 (human) (UniProt Q00526+P24864). The assay is described as above. To be noted: compound 0.5 µM; ATP 10 µM.
Regarding `Cn1cnc2cc3c(Nc4cccc(Br)c4)ncnc3cc21`, the residual activity is 92.5%.

For `O=C1Nc2ccccc2/C1=C1\Nc2ccccc2\C1=N/O`, the residual activity came to 52.3%.

Take `O=C(Nc1cccc(Nc2cc(Nc3cccc(C(F)(F)F)c3)ncn2)c1)C1CC1`: the residual activity worked out at 94.8%.

Another assay deals with PIM3 (human) (UniProt Q86V86). The description is as above. The note with it: compound 0.5 µM; ATP 10 µM.
Take `Cn1cnc2cc3c(Nc4cccc(Br)c4)ncnc3cc21`: the residual activity worked out at 104%.

Consider `O=C1Nc2ccccc2/C1=C1\Nc2ccccc2\C1=N/O`, for which the residual activity was 73.6%.

As for `O=C(Nc1cccc(Nc2cc(Nc3cccc(C(F)(F)F)c3)ncn2)c1)C1CC1`, the residual activity came to 133%.

Another assay deals with FGR (human) (UniProt P09769). The assay is described as above. To be noted: compound 0.5 µM; ATP 10 µM.
For the compound `Cn1cnc2cc3c(Nc4cccc(Br)c4)ncnc3cc21`, the residual activity is 55.8%.

Regarding `O=C1Nc2ccccc2/C1=C1\Nc2ccccc2\C1=N/O`, the residual activity turned out to be 35.7%.

On to `O=C(Nc1cccc(Nc2cc(Nc3cccc(C(F)(F)F)c3)ncn2)c1)C1CC1`, for which the residual activity stood at 96.4%.

The next assay has as its target CAMKK1 (human) (UniProt Q8N5S9). The assay is described as above. To be noted: compound 0.5 µM; ATP 10 µM.
Take `Cn1cnc2cc3c(Nc4cccc(Br)c4)ncnc3cc21`: the residual activity was found to be 107%.

Regarding `O=C1Nc2ccccc2/C1=C1\Nc2ccccc2\C1=N/O`, the residual activity was 53.6%.

On to `O=C(Nc1cccc(Nc2cc(Nc3cccc(C(F)(F)F)c3)ncn2)c1)C1CC1`, for which the residual activity amounted to 116%.

The next assay has as its target EPHA4 (human) (UniProt P54764). Described as above. To be noted: compound 0.5 µM; ATP 10 µM.
Regarding `Cn1cnc2cc3c(Nc4cccc(Br)c4)ncnc3cc21`, the residual activity was determined as 80.7%.

As for `O=C1Nc2ccccc2/C1=C1\Nc2ccccc2\C1=N/O`, the residual activity turned out to be 89.4%.

Turning to `O=C(Nc1cccc(Nc2cc(Nc3cccc(C(F)(F)F)c3)ncn2)c1)C1CC1`, the residual activity came to 96.5%.

A further assay deals with PRKCG (human) (UniProt P05129). The assay is described as above. The note with it: compound 0.5 µM; ATP 10 µM.
For the compound `Cn1cnc2cc3c(Nc4cccc(Br)c4)ncnc3cc21`, the residual activity is 93.9%.

As for `O=C1Nc2ccccc2/C1=C1\Nc2ccccc2\C1=N/O`, the residual activity turned out to be 96.7%.

In the case of `O=C(Nc1cccc(Nc2cc(Nc3cccc(C(F)(F)F)c3)ncn2)c1)C1CC1`, the residual activity is 102%.

The target of another assay is PRKG2 (human) (UniProt Q13237). The description is as above. The note with it: compound 0.5 µM; ATP 10 µM.
As for `Cn1cnc2cc3c(Nc4cccc(Br)c4)ncnc3cc21`, the residual activity was 63.6%.

`O=C1Nc2ccccc2/C1=C1\Nc2ccccc2\C1=N/O`: the residual activity is 67.3%.

For the compound `O=C(Nc1cccc(Nc2cc(Nc3cccc(C(F)(F)F)c3)ncn2)c1)C1CC1`, the residual activity is 103%.

For the next assay, the target named is TSSK1B (human) (UniProt Q9BXA7). The assay is described as above. To be noted: compound 0.5 µM; ATP 10 µM.
As to `Cn1cnc2cc3c(Nc4cccc(Br)c4)ncnc3cc21`, the residual activity was determined as 104%.

For `O=C1Nc2ccccc2/C1=C1\Nc2ccccc2\C1=N/O`, the residual activity amounted to 86%.

On to `O=C(Nc1cccc(Nc2cc(Nc3cccc(C(F)(F)F)c3)ncn2)c1)C1CC1`, for which the residual activity was 104%.

The next assay has as its target PIM2 (human) (UniProt Q9P1W9). The description is as above. To be noted: compound 0.5 µM; ATP 10 µM.
`Cn1cnc2cc3c(Nc4cccc(Br)c4)ncnc3cc21`: the residual activity turned out to be 113%.

`O=C1Nc2ccccc2/C1=C1\Nc2ccccc2\C1=N/O`: the residual activity was found to be 106%.

Turning to `O=C(Nc1cccc(Nc2cc(Nc3cccc(C(F)(F)F)c3)ncn2)c1)C1CC1`, the residual activity was 104%.

A further assay concerns the target NTRK2 (human) (UniProt Q16620). The description is as above. The note with it: compound 0.5 µM; ATP 10 µM.
As to `Cn1cnc2cc3c(Nc4cccc(Br)c4)ncnc3cc21`, the residual activity was found to be 98.9%.

Regarding `O=C1Nc2ccccc2/C1=C1\Nc2ccccc2\C1=N/O`, the residual activity came to 4.08%.

`O=C(Nc1cccc(Nc2cc(Nc3cccc(C(F)(F)F)c3)ncn2)c1)C1CC1`: the residual activity worked out at 100%.

In another assay the target is WNK3 (human) (UniProt Q9BYP7). The assay is described as above. To be noted: compound 0.5 µM; ATP 10 µM.
Take `Cn1cnc2cc3c(Nc4cccc(Br)c4)ncnc3cc21`: the residual activity is 95.8%.

Regarding `O=C1Nc2ccccc2/C1=C1\Nc2ccccc2\C1=N/O`, the residual activity was 89.4%.

On to `O=C(Nc1cccc(Nc2cc(Nc3cccc(C(F)(F)F)c3)ncn2)c1)C1CC1`, for which the residual activity amounted to 100%.

The target in another assay is MAP3K9 (human) (UniProt P80192). Described as above. To be noted: compound 0.5 µM; ATP 10 µM.
MAP3K9 (human), sequence (P80192 whole entry, looked up): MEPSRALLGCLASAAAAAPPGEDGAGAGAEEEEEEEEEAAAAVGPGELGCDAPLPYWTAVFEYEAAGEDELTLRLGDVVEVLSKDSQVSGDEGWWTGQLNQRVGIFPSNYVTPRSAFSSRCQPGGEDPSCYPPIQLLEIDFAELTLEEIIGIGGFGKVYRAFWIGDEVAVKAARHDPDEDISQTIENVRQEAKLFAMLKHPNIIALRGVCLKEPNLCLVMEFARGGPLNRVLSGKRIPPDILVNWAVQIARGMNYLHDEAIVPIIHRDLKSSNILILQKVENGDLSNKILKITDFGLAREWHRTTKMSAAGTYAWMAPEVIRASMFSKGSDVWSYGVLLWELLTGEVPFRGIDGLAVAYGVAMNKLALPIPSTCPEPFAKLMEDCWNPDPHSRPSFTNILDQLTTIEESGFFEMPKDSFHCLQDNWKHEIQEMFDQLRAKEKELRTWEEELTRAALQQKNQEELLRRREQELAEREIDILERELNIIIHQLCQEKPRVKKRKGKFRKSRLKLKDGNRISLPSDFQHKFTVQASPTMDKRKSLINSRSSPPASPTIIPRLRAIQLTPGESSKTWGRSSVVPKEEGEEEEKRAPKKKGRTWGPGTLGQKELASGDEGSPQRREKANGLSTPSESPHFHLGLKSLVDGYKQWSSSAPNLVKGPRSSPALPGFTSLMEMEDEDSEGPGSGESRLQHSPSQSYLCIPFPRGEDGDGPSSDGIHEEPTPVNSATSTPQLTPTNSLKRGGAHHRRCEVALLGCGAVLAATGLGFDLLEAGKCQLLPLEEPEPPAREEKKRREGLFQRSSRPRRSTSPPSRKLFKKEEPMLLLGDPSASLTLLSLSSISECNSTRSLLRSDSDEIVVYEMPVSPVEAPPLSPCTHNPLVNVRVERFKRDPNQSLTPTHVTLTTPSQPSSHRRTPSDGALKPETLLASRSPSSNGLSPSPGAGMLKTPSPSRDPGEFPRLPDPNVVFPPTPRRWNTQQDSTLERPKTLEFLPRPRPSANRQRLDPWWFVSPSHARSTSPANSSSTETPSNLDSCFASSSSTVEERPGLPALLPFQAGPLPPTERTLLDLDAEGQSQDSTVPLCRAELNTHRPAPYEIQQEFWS
Take `Cn1cnc2cc3c(Nc4cccc(Br)c4)ncnc3cc21`: the residual activity came out at 79.8%.

As to `O=C1Nc2ccccc2/C1=C1\Nc2ccccc2\C1=N/O`, the residual activity is 19.1%.

In the case of `O=C(Nc1cccc(Nc2cc(Nc3cccc(C(F)(F)F)c3)ncn2)c1)C1CC1`, the residual activity stood at 107%.

For a further assay, the target named is SGK2 (human) (UniProt Q9HBY8). Described as above. To be noted: compound 0.5 µM; ATP 10 µM.
SGK2 (human), sequence (Q9HBY8 whole entry, looked up): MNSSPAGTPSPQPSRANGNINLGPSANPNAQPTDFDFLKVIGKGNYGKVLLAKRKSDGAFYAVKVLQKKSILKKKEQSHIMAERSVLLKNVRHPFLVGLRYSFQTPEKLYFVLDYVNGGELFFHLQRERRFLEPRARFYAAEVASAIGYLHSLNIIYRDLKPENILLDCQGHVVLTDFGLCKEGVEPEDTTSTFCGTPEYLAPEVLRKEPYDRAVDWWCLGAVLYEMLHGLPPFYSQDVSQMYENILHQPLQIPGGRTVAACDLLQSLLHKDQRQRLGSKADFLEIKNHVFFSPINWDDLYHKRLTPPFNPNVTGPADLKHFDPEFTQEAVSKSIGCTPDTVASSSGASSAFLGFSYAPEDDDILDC
As to `Cn1cnc2cc3c(Nc4cccc(Br)c4)ncnc3cc21`, the residual activity amounted to 104%.

Turning to `O=C1Nc2ccccc2/C1=C1\Nc2ccccc2\C1=N/O`, the residual activity came out at 91.8%.

For `O=C(Nc1cccc(Nc2cc(Nc3cccc(C(F)(F)F)c3)ncn2)c1)C1CC1`, the residual activity was 99%.

The target in a further assay is RAF1 (human) (UniProt P04049). The description is as above. To be noted: compound 0.5 µM; ATP 10 µM.
RAF1 (human), sequence (P04049 whole entry, looked up): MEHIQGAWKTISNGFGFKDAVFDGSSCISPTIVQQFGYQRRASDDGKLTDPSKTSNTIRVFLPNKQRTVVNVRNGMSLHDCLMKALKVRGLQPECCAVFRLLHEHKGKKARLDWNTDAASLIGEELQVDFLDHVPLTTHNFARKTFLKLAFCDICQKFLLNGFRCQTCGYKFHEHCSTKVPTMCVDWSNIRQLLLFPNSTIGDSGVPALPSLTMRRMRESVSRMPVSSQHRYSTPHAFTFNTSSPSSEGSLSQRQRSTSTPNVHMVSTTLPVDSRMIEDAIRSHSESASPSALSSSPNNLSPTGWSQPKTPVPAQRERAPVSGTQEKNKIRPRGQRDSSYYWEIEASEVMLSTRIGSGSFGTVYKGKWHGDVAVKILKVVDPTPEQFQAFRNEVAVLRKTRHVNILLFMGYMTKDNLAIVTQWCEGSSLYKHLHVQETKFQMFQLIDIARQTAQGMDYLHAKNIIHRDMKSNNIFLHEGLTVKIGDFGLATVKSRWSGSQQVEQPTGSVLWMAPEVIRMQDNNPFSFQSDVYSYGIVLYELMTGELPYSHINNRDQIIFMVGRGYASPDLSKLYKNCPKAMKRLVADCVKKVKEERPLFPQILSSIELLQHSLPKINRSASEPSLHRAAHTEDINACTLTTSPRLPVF
For the compound `Cn1cnc2cc3c(Nc4cccc(Br)c4)ncnc3cc21`, the residual activity came to 98.6%.

In the case of `O=C1Nc2ccccc2/C1=C1\Nc2ccccc2\C1=N/O`, the residual activity came out at 99.3%.

Consider `O=C(Nc1cccc(Nc2cc(Nc3cccc(C(F)(F)F)c3)ncn2)c1)C1CC1`, for which the residual activity stood at 98.4%.

Another assay deals with MAP3K5 (human) (UniProt Q99683). The description is as above. The note with it: compound 0.5 µM; ATP 10 µM.
As to `Cn1cnc2cc3c(Nc4cccc(Br)c4)ncnc3cc21`, the residual activity is 110%.

In the case of `O=C1Nc2ccccc2/C1=C1\Nc2ccccc2\C1=N/O`, the residual activity was found to be 84.3%.

As to `O=C(Nc1cccc(Nc2cc(Nc3cccc(C(F)(F)F)c3)ncn2)c1)C1CC1`, the residual activity amounted to 104%.

The target in another assay is MAPK1 (human) (UniProt P28482). The description is as above. To be noted: compound 0.5 µM; ATP 10 µM.
As to `Cn1cnc2cc3c(Nc4cccc(Br)c4)ncnc3cc21`, the residual activity is 94.2%.

As a reminder, the residual activity is the signal under treatment as a percentage of the control signal.
